Results on one compound are retold here after publication PMC9569450, “Dual Effect of Tryptamine on Prostate Cancer Cell Growth Regulation: A Pilot Study” (International Journal of Molecular Sciences, 2022).

Where only a bound is given, the exact number is not on record here.

The subject of one data set is PC-3 xenograft tumors. The data set is described as follows: PC-3 xenograft mouse model. It counts as in vivo. The protocol:
Five-week-old male BALB/c nude mice were purchased from Charles River Laboratories (Beijing, China) and raised in a temperature and humidity-controlled environment (25 ± 2 °C, 50% ± 10% humidity) with a standard 12 h light-dark cycle with food and water in cages under germ-free conditions (SCXK2021-0006). All procedures involving animals and their care were approved by the Institutional Animal Care and Use Committee of the Ocean University of China in accordance with institutional and National Institutes of Health guidelines (OUC-SMP-2022-01-01). PC-3 cells (4 × 10^6 dissolved in 150 μL PBS) were injected subcutaneously into the armpit area of each mouse. For the first treatment group, when tumors reached 50 mm^3, 80 mg/kg of tryptamine dissolved in normal saline with 0.1% formic acid was administered intraperitoneally once every other day for 32 days (n = 6). […] The control groups were administrated with the vehicle. The tumor volume (mm^3) was calculated based on the formula:(2) Tumor volume (mm^3)=length×width^2/2

The subject of another data set is LNCaP cells. Briefly: MTT cell proliferation assay, LNCaP. It counts as cell-based. The settings on record: Homo sapiens, LNCaP, 48 h treatment in FBS-free medium, read-out: IC50 Value (Mean ± SD mM) LNCaP. The protocol: PC-3, LNCaP, RWPE-1, HepG2, A549, and PANC-1 cells were purchased from the National Collection of Authenticated Cell Cultures (Shanghai, China). […] All the above cell cultures were supplied with 10% fetal bovine serum and 1% penicillin-streptomycin. RWPE-1 cells were cultured in keratinocyte serum-free medium (K-SFM, Gibco, New York, NY, USA) supplemented with 50 mg/L bovine pituitary extract and 5 μg/L epidermal growth factor (EGF). All cell lines were grown in a humidified atmosphere of 5% CO2 at 37 °C.
Cells were seeded in 100 μL complete medium in a 96-well plate, at a density of 10,000 cells/well for LNCaP and 5000 cells/well for other cells. Cells were pre-incubated for 24 h to allow for adherence before removal of complete medium and treatment with various concentrations of compounds in fetal bovine serum (FBS)-free medium for 48 h. After treatment, 20 μL/well MTT (5 mg/mL) was added and incubated for 3–4 h at 37 °C, and then 100 μL/well DMSO was added for MTT assay. The plate was shaken on an orbital shaker for 10 min. Absorbance was measured using a microplate reader at 492 nm for the MTT assay (performed in triplicates). Cell viability was normalized to control. Half inhibitory concentration (IC50) was calculated by SPSS Statistics 17.0. […] The experiments were independently repeated two to three times.
(Tetrazolium dyes change colour on reduction, which living cells bring about.)

Another data set deals with PANC-1 cells. The data set is described as follows: Transwell migration assay, PANC-1. It counts as cell-based. The settings on record: 24 h. The protocol:
(§1) Cell migration was evaluated using 8-μm transwell filters (Costar Corning, Schiphol-Rijk, The Netherlands). Cells at a density of 5 × 10^4 were seeded to the upper chamber, and the chamber was filled with FBS-free medium. Cells were incubated overnight to allow for adherence; then, the lower chamber was replaced with 10% FBS medium as a chemo-attractant. Following a 24 h incubation, non-migrating cells on the upper surface of the insert membrane were gently removed by cotton swabs and migrated cells on the lower surface of the insert membrane were fixed by 4% paraformaldehyde and stained with 0.1% crystal violet for 20 min. Migrated cells on each membrane were photographed and counted at 100× magnification field at six random fields.

In another data set the test system is PC-3 cells. The data set is described as follows: Transwell migration assay, PC-3. It counts as cell-based, human. To be noted: 24 h. The protocol: as §1
Data set [1] deals with PC-3, LNCaP, RWPE-1, A549, PANC-1, and HepG2 cells. The data set is described as follows: MTT cell proliferation assay, all cell lines. In kind it is cell-based. To be noted: all cell lines tested; read-out: IC50 values for all six cell lines tested. The protocol:
PC-3, LNCaP, RWPE-1, HepG2, A549, and PANC-1 cells were purchased from the National Collection of Authenticated Cell Cultures (Shanghai, China). PC-3 and A549 cells were cultured in F-12K Nutrient Mixture (Gibco, New York, NY, USA), LNCaP in RPMI 1640 (Gibco, New York, NY, USA), PANC-1 in Dulbecco’s Modified Eagle Medium (DMEM, Gibco, New York, NY, USA), and HepG2 in minimal essential medium (MEM, Gibco, New York, NY, USA). All the above cell cultures were supplied with 10% fetal bovine serum and 1% penicillin-streptomycin. RWPE-1 cells were cultured in keratinocyte serum-free medium (K-SFM, Gibco, New York, NY, USA) supplemented with 50 mg/L bovine pituitary extract and 5 μg/L epidermal growth factor (EGF). All cell lines were grown in a humidified atmosphere of 5% CO2 at 37 °C.
Cells were seeded in 100 μL complete medium in a 96-well plate, at a density of 10,000 cells/well for LNCaP and 5000 cells/well for other cells. Cells were pre-incubated for 24 h to allow for adherence before removal of complete medium and treatment with various concentrations of compounds in fetal bovine serum (FBS)-free medium for 48 h. After treatment, 20 μL/well MTT (5 mg/mL) was added and incubated for 3–4 h at 37 °C, and then 100 μL/well DMSO was added for MTT assay. The plate was shaken on an orbital shaker for 10 min. Absorbance was measured using a microplate reader at 492 nm for the MTT assay (performed in triplicates). Cell viability was normalized to control. Half inhibitory concentration (IC50) was calculated by SPSS Statistics 17.0. The combination index (CI) isobologram equation was used for the quantitative determination of the interaction between two compounds [62]:(1) Combination index CI =CA,x/ICx,A+CB,x/ICx,B where CA,x and CB,x are compound concentrations that […], and ICx,A and ICx,B are compound concentrations that provide the same effect when being used in combination. The experiments were independently repeated two to three times.

For data set [2], the system named is human colon cancer cell line HT29. The settings on record: HT29 as in vitro model of intestinal epithelium; cited from earlier work.

As for `NCCc1c[nH]c2ccccc12` [Tryptamine], in the data set on PC-3 xenograft tumors (intraperitoneal, 80 mg/kg once every other day for 32 days), the “tumor volume and weight compared with the control group” value was “increased tumor volume and weight”. In the data set on PC-3 xenograft tumors (intratumoral, 1 mg/100 mm^3), the “adverse effects or toxicity in the liver” value is given as “without obvious signs of adverse effects or toxicity in the liver”. Also, the “tumor growth, tumor volume and weight” value in the data set on PC-3 xenograft tumors (intratumoral, 1 mg/100 mm^3 every day for 16 days) is listed as “significant tumor growth delay”. Also, the figures for the IC50 (with LNCaP cells; in data set [1]; in data set [2]) were 0.037 ± 0.001 mM, at most 900 µM and 670 ± 90 µM, respectively. In addition, the “migrated cells reduced by” value in the data set with PANC-1 cells (PANC-1, 0.075 mM) was 43%; with PC-3 cells (PC-3, 0.075 mM), 22%. Also, the “percentage of migrated cells” value worked out at 45% in the data set with PANC-1 cells (PANC-1, 0.15 mM); 27% in the data set with PANC-1 cells (PANC-1, 0.3 mM); 58% in the data set with PC-3 cells (PC-3, 0.15 mM); 23% in the data set on PC-3 cells (PC-3, 0.3 mM).

As usually defined, the IC50 is the concentration at which inhibition is half-maximal.
